Measurements published in patent publication US20040043959A1, “Combination therapies for treating methylthioadenosine phosphorylase deficient cells” (priority 2002, published 2004).
Read-outs that look alike come from different tables or passages of the source.

Legend:
[1] = system: human pancreatic BxPC-3 tumor; assay: antitumor activity in MTAP-deficient xenograft model; assay type: in vivo, mice
Source text: (§1) To evaluate the in vivo effect of combination therapy on known human MTAP-deficient tumors, an MTAP-deficient cell line was introduced to mice to produce xenograft MTAP-deficient tumors. 108 BALB/c/nu/nu female mice bearing subcutaneous tumor fragments produced from the MTAP-deficent BxPC-3 cell line were housed 3 per cage with free access to food and water. Mice were fed a folate-deficient chow (#Td84052, Harlan Teklad, Madison, Wis.) beginning 14 days prior to initiation of drug treatment and continuing throughout the study. After randomization by tumor volume into 8 treatment groups and assigning the remaining 12 mice to group 7, beginning on the twenty-first day after tumor implant mice were dosed with Compound 7 daily for 4 days, and with MTA or vehicle twice-a-day for 8 days, in the amounts indicated in Table 7 below. The vehicle for both compounds was 0.75% sodium bicarbonate in water (7.5% NaHCO3 solution (Cellgro #25-035-4, Mediatech, Herndon, Va.) diluted 1:10 in sterile water for injection (Butler, Columbus, Ohio)) under pH adjusted to 7.0-7.4. Solutions were sterilized by filtration through 0.22 micron polycarboniate filters (Cameo 25GAS, Micron Separations Inc., Westboro, Mass.). Tumor volumes and animal weight loss, which is an indicator of toxicity, were recorded daily for 14 days at the same time of day, then on a Monday, Wednesday, Friday schedule for the remainder of the study.

[2] = target: T1, human membrane folate-binding protein (mFBP) (Homo sapiens, UniProt P15328); assay: competitive binding assay against 3H-folic acid with mFBP prepared from KB cells
T1 construct: mFBP prepared from cultured KB cells (human nasopharyngeal carcinoma cells); endogenous in cells
Source text: The dissociation constant (Kd) of the preferred inhibitors of the present invention for human membrane folate-binding protein (mFBP) can be determined in a competitive binding assay using mFBP prepared from cultured KB cells (human nasopharyngeal carcinoma cells) as disclosed in U.S. Pat. No. 5,646,141, the disclosures of which is hereby incorporated by reference in its entirety.
Human membrane folate binding protein can be obtained from KB cells by methods well known in the art. KB cells are washed, sonicated for cell lysis and centrifuged to form pelleted cells. The pellet can then be stripped of endogenous bound folate by resuspension in acidic buffer (KH2PO4—KOH and 2-mercaptoethanol) and centrifuged again. The pellet is then resuspended and the protein content quantitated using the Bradford method with bovine serum albumin (BSA) as standard.
Disassociation constants are determined by allowing, the test inhibitor to compete against ^3H-folic acid for binding to mFBP. Reaction mixtures are designed to generally contain mFBP, ^3H-folic acid, and various concentrations of the subject test inhibitor in acidic buffer (KH2PO4—KOH and 2-mercaptoethanol). The competition reaction is typically conducted at 25°. Because of the slow nature of release of bound ^3H-folic acid, the test inhibitor may be prebound prior to addition of bound ^3H-folic acid, after which the reaction should be allowed to equilibriate. The full reaction mixtures then should be drawn through nitrocellulose filters to isolate the cell membranes with bound ^3H-folic acid. The trapped mFBP are then washed and measured by scintillation counting. The data can then be nonlinearly fitted as described above in determining Ki. The mFBP Kd for ^3H-folic acid, used for calculating the competitor Kd, can be obtained by directly titrating mFBP with ^3H-folate. The mFBP Kd can then be used to calculate the competitor Kd by nonlinear fitting of the data to an equation for tight-binding Kc. Table 1 below provides the Kd values of several GARFT inhibitors using the assay described above.

[3] = animal weight loss (toxicity) in BxPC-3 xenograft study; assay type: in vivo; conditions: 40 mg/kg Compound 7 plus 50 mg/kg MTA versus 2.5 mg/kg Compound 7 alone, folate-deficient diet
Source text: as §1, with “Solutions were sterilized by filtration through 0.22 micron polycarboniate filters (Cameo 25GAS, Micron Separations Inc., Westboro, Mass.).” left out

[4] = mouse, in vivo
Protocol: A series of experiments were undertaken in order to evaluate the in vivo effect of schedule of administration of MTA on reduction of […] induced by […]. BALB/c/nu/nu female mice were housed 3 per cage with free access to food and water. Mice were fed a folate-deficient chow (#Td84052, Harlan-Teklad, Madison, Wis.) for at least 14 days prior to initiation of drug treatment and continuing throughout the study. Animal weight loss, which is a measure of toxicity, was recorded at least daily for 18 days at the same time of day. Table 11 presents a summary of data from multiple experiments, i.e., at least two experiments for each schedule. […] To produce this effect, MTA must be administered at the beginning of treatment with Compound 7 and continuing until after treatment with Compound 7. Further, since the activity of Compound 7 continues for at least a few days after the last dose was administered, to produce an effect MTA must be administered during this period of activity, i.e. for at least 2 days after the last dose of the cytotoxic was administered.

[5] = system: MTAP-competent SK-MES-1 non-small cell lung cancer cells; assay: MTT growth inhibition by Compound 7 with and without MTA; assay type: cell-based, human
Protocol: All cell lines were purchased from the American Type Culture Collection. All cultures were maintained at 37° C., in 5% air-CO2 atmosphere in a humidified incubator.
Cells were plated in columns 2-12 of a 96-well microtiter plate, with column 2 designated as the vehicle control. The same volume of medium was added to column 1. Column 1 was designated as the media control. After a 4-hour incubation, the cells were treated with Compound 7, with or without a non-growth inhibitory concentration of MTA, in quadruplicate wells. […] MTT (4,5-dimethylthiazol-2-yl)-2,5-diphenyl tetrazolium bromide; Sigma, St. Louis, Mo.) was added to a final concentration of 0.25-1 mg/ml in each well, and the plates were incubated for 4 hours. The liquid was removed from each well. DMSO was added to each well, then the plates were vortexed slowly in the dark for 7-20 minutes. The formazin product was quantified spectrophotometrically at […] on a Molecular Devices Vmax™ kinetic microplate reader.

[6] = target: T1, human membrane folate-binding protein (mFBP); conditions: relative to lometrexol; cited from earlier work
[7] = target: T2, GARFT (Homo sapiens, UniProt P22102); conditions: read-out: Ki (GARFT inhibitor); cited from earlier work
T2 construct: The GART domain (residues 808-1010) of the trifunctional human GARS-AIRS-GART enzyme was purified; made in house

[8] = system: BxPC-3 cells transfected with the MTAP gene; assay: colony formation cytotoxicity, 6 h drug exposure; assay type: cell-based, human; conditions: 1.5 μM Compound 7 with 50 μM anti-toxicity agent, FIG. 5a
Protocol: Cytoxicity data was collected using BxPC-3, PANC-1 and HT-1080 cells which were cultured in Iscove's medium supplemented with 10% dialyzed, horse serum, 5% nonessential amino acids and 5% sodium pyruvate.
(§2) Mid-log-phase cells were trypsinized and placed in 60 mm tissue culture dishes at 200 or 250 cells per dish. Cells from each cell line were left to attach for 4 hours and then were treated with Compound 7, with or without MTA or dcSAMe, in 5-fold serial dilutions for 6 or 24 hours. For data shown in FIGS. 5a and 5b, cells were exposed to drug(s) for 6 hours only. For data shown in FIG. 6, cells were exposed to Compound 7 for 24 hours and to MTA continuously for the duration of colony growth (i.e. 24 hours and thereafter). Cells were next washed with PBS, and then fixed and stained with 1% w/v crystal violet in 25% methanol (Sigma, St. Louis, Mo.). After washing the dishes 2-3 times. with deionized water, the colonies were counted. Triplicate dishes were used for each drug concentration.

[9] = system: MTAP-competent NCI-H460 cells; assay: colony formation cytotoxicity with varying duration of MTA exposure; assay type: cell-based, human; conditions: MTA for at least 48 hours, at least 1 day after Compound 7 exposure, FIG. 8
Protocol: as §2
Cytoxicity data for combination therapy of Compound 7 with MTA was collected using MTAP-competent […] cells. NCI-H460 cells were cultured, incubated and stained as described in Example 3(B) above, but with an incubation time of up to eight days.

T1 sequence (P15328 25-234): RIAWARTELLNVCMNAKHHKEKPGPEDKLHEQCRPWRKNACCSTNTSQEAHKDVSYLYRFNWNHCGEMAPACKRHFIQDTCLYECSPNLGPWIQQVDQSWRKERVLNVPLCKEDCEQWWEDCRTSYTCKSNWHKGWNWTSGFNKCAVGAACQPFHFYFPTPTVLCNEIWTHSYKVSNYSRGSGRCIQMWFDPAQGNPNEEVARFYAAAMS
T2 sequence (P22102 808-1010): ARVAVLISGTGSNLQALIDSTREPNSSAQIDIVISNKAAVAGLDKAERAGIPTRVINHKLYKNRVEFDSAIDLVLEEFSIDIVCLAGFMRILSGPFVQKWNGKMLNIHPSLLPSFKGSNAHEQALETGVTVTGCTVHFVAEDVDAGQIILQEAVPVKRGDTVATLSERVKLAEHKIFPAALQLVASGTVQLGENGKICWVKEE

Cc1cc(C(=O)N[C@@H](CCC(=O)O)C(=O)O)sc1CC[C@@H]1CNc2nc(N)[nH]c(=O)c2C1 (single isomer, unassigned) [Compound 7]
Time to 1000 mm^3 (days) Mean ([1]; 2.5 mg/kg Compound 7 qd x4): 32.3 days
Time to 1000 mm^3 (days) Median ([1]; 2.5 mg/kg Compound 7 qd x4): 32.4 days
Time to 1000 mm^3 (days) Mean ([1]; 5 mg/kg Compound 7 qd x4): 32.1 days
Time to 1000 mm^3 (days) Median ([1]; 5 mg/kg Compound 7 qd x4): 32.4 days
Time to 1000 mm^3 (days) Mean ([1]; 10 mg/kg Compound 7 qd x4): 34.0 days
Time to 1000 mm^3 (days) Median ([1]; 10 mg/kg Compound 7 qd x4): 33.4 days
Time to 1000 mm^3 (days) Median ([1]; 20 mg/kg Compound 7 qd x4): 36.4 days
increase of therapeutic window ([1]; MTA twice a day 8 days, Compound 7 daily 4 days, nu/nu tumor-bearing mice, folate-deficient diet): 16 fold
Kd [2]: 290 nM
reduction in toxicity (weight loss) [3]: 16 fold
Increase in Compound 7 maximum tolerated dose (-fold dose) ([4]; female, BALB/c/nu/nu): 4 -fold dose
Increase in Compound 7 maximum tolerated dose (-fold dose) [4]: None
cell growth inhibition as a single agent ([5]; SK-MES-1, 168 h, FIG. 3): fully inhibited cell growth
cell number at the highest concentration of Compound 7 tested ([5]; with 10 μM MTA, up to approximately 60 times the IC50 of Compound 7): about 75 % of control
binds less tightly than lometrexol to mFBP [6]: about 1400 fold
Ki [7]: 0.5 nM

CSC[C@H]1O[C@@H](n2cnc3c(N)ncnc32)[C@H](O)[C@@H]1O [MTA, methylthioadenosine]
Time to 1000 mm^3 (days) Mean ([1]; 50 mg/kg MTA bid x8 alone): 22.6 days
Time to 1000 mm^3 (days) Median ([1]; 50 mg/kg MTA bid x8 alone): 21.4 days
cell survival [8]: 100%
protection from Compound 7-induced cytotoxicity [9]: fully protected cells from Compound 7-induced cytotoxicity
